Data: ChEMBL document CHEMBL3390848, “Affinity selection and sequence-activity relationships of HIV-1 membrane fusion inhibitors directed at the drug-resistant variants” (Medchemcomm, 2010)
Residues, ends and D or L forms follow the SMILES beside them.

What was measured:
[1] = tested on: Human immunodeficiency virus 1; assay: Binding affinity to HIV1 His-tagged N-terminal heptad repeat of envelope glycoprotein gp41 assessed as recovery of N54-drug complex after 2 hrs by LC-MS analysis; design: concentration or dose not given beside the values
[2] = tested on: Human immunodeficiency virus 1; assay: Thermal stability of HIV1 envelope glycoprotein gp41 His-tagged N-terminal heptad repeat N54-drug complex assessed as thermal unfolding transition state by measuring molar ellipticity at 4 to 90 degC by circular dichroic spectra analysis
[3] = tested on: Human immunodeficiency virus 1; assay: Antiviral activity against HIV1 NL4-3 harboring gp41 D36G mutant infected in human HeLa cells expressing CD4-LTR-beta-gal assessed as inhibition of viral replication after 48 hrs by MAGI assay; format: functional, organism-based

Structure (SMILES) | Activity [1] [%] | Tm [2] [°C] | EC50 [3] [nM]
CC[C@H](C)[C@H](NC(=O)[C@H](CCC(=O)O)NC(=O)[C@H](CCC(=O)O)NC(=O)[C@H](CO)NC(=O)[C@H](CCCCN)NC(=O)[C@H](CCCCN)NC(=O)[C@@H](NC(=O)[C@H](CC(C)C)NC(=O)[C@H](CCC(=O)O)NC(=O)[C@H](CCC(=O)O)NC(=O)[C@@H](NC(=O)[C@H](CC(C)C)NC(=O)[C@H](CO)NC(=O)[C@@H](NC(=O)[C@H](Cc1ccc(O)cc1)NC(C)=O)[C@@H](C)O)[C@@H](C)CC)[C@@H](C)CC)C(=O)N[C@@H](CCC(N)=O)C(=O)N[C@@H](CCCCN)C(=O)N[C@@H](CCCCN)C(=O)N[C@@H](CC(N)=O)C(=O)N[C@@H](CCC(=O)O)C(=O)N[C@@H](CCC(=O)O)C(=O)N[C@@H](CCC(=O)O)C(=O)N[C@@H](CC(C)C)C(=O)N[C@@H](CCCCN)C(=O)N[C@@H](CCCCN)C(=O)N[C@@H](CC(C)C)C(=O)N[C@@H](CCC(=O)O)C(=O)N[C@@H](CCC(=O)O)C(=O)N[C@@H](Cc1c[nH]c2ccccc12)C(=O)N[C@@H](C)C(=O)N[C@@H](CCCCN)C(=O)N[C@@H](CCCCN)C(=O)N[C@@H](Cc1c[nH]c2ccccc12)C(=O)N[C@@H](CC(N)=O)C(=O)N[C@@H](Cc1c[nH]c2ccccc12)C(=O)N[C@@H](Cc1ccccc1)C(N)=O (Ac-YTSLIEELIKKSEEIQKKNEEELKKLEEWAKKWNWF-NH2) | 10.4 | 74 | 0.8
CC[C@H](C)[C@H](NC(=O)[C@H](CC(C)C)NC(=O)[C@H](CCC(=O)O)NC(=O)[C@H](CCC(=O)O)NC(=O)[C@@H](NC(=O)[C@H](CC(C)C)NC(=O)[C@H](CO)NC(=O)[C@@H](NC(=O)[C@H](Cc1ccc(O)cc1)NC(C)=O)[C@@H](C)O)[C@@H](C)CC)C(=O)N[C@@H](CCCCN)C(=O)N[C@@H](CCCCN)C(=O)N[C@@H](CO)C(=O)N[C@@H](CCC(=O)O)C(=O)N[C@@H](CCC(=O)O)C(=O)N[C@@H](CCCCN)C(=O)N[C@@H](CCC(N)=O)C(=O)N[C@@H](CCCCN)C(=O)N[C@@H](CCCCN)C(=O)N[C@@H](CC(N)=O)C(=O)N[C@@H](CCC(=O)O)C(=O)N[C@@H](CCC(=O)O)C(=O)N[C@@H](CCC(=O)O)C(=O)N[C@@H](CC(C)C)C(=O)N[C@@H](CCCCN)C(=O)N[C@@H](CCCCN)C(=O)N[C@@H](CC(C)C)C(=O)N[C@@H](CCC(=O)O)C(=O)N[C@@H](CCC(=O)O)C(=O)N[C@@H](Cc1c[nH]c2ccccc12)C(=O)N[C@@H](C)C(=O)N[C@@H](CCCCN)C(=O)N[C@@H](CCCCN)C(=O)N[C@@H](Cc1c[nH]c2ccccc12)C(=O)N[C@@H](CC(N)=O)C(=O)N[C@@H](Cc1c[nH]c2ccccc12)C(=O)N[C@@H](Cc1ccccc1)C(N)=O (Ac-YTSLIEELIKKSEEKQKKNEEELKKLEEWAKKWNWF-NH2) | 4.8 | 65.3 | 3.8
CC[C@H](C)[C@H](NC(=O)[C@H](CC(C)C)NC(=O)[C@H](CCC(=O)O)NC(=O)[C@H](CCC(=O)O)NC(=O)[C@@H](NC(=O)[C@H](CC(C)C)NC(=O)[C@H](CO)NC(=O)[C@@H](NC(=O)[C@H](Cc1ccc(O)cc1)NC(C)=O)[C@@H](C)O)[C@@H](C)CC)C(=O)N[C@@H](CCCCN)C(=O)N[C@@H](CCCCN)C(=O)N[C@@H](CO)C(=O)N[C@@H](CCC(=O)O)C(=O)N[C@@H](CCC(=O)O)C(=O)N[C@@H](CC(C)C)C(=O)N[C@@H](CCC(N)=O)C(=O)N[C@@H](CCCCN)C(=O)N[C@@H](CCCCN)C(=O)N[C@@H](CC(N)=O)C(=O)N[C@@H](CCC(=O)O)C(=O)N[C@@H](CCC(=O)O)C(=O)N[C@@H](CCC(=O)O)C(=O)N[C@@H](CC(C)C)C(=O)N[C@@H](CCCCN)C(=O)N[C@@H](CCCCN)C(=O)N[C@@H](CC(C)C)C(=O)N[C@@H](CCC(=O)O)C(=O)N[C@@H](CCC(=O)O)C(=O)N[C@@H](Cc1c[nH]c2ccccc12)C(=O)N[C@@H](C)C(=O)N[C@@H](CCCCN)C(=O)N[C@@H](CCCCN)C(=O)N[C@@H](Cc1c[nH]c2ccccc12)C(=O)N[C@@H](CC(N)=O)C(=O)N[C@@H](Cc1c[nH]c2ccccc12)C(=O)N[C@@H](Cc1ccccc1)C(N)=O (Ac-YTSLIEELIKKSEELQKKNEEELKKLEEWAKKWNWF-NH2) | 10.4 | 77.4 | 0.5
CC[C@H](C)[C@H](NC(=O)[C@H](CC(C)C)NC(=O)[C@H](CCC(=O)O)NC(=O)[C@H](CCC(=O)O)NC(=O)[C@@H](NC(=O)[C@H](CC(C)C)NC(=O)[C@H](CO)NC(=O)[C@@H](NC(=O)[C@H](Cc1ccc(O)cc1)NC(C)=O)[C@@H](C)O)[C@@H](C)CC)C(=O)N[C@@H](CCCCN)C(=O)N[C@@H](CCCCN)C(=O)N[C@@H](CO)C(=O)N[C@@H](CCC(=O)O)C(=O)N[C@@H](CCC(=O)O)C(=O)N[C@@H](CCSC)C(=O)N[C@@H](CCC(N)=O)C(=O)N[C@@H](CCCCN)C(=O)N[C@@H](CCCCN)C(=O)N[C@@H](CC(N)=O)C(=O)N[C@@H](CCC(=O)O)C(=O)N[C@@H](CCC(=O)O)C(=O)N[C@@H](CCC(=O)O)C(=O)N[C@@H](CC(C)C)C(=O)N[C@@H](CCCCN)C(=O)N[C@@H](CCCCN)C(=O)N[C@@H](CC(C)C)C(=O)N[C@@H](CCC(=O)O)C(=O)N[C@@H](CCC(=O)O)C(=O)N[C@@H](Cc1c[nH]c2ccccc12)C(=O)N[C@@H](C)C(=O)N[C@@H](CCCCN)C(=O)N[C@@H](CCCCN)C(=O)N[C@@H](Cc1c[nH]c2ccccc12)C(=O)N[C@@H](CC(N)=O)C(=O)N[C@@H](Cc1c[nH]c2ccccc12)C(=O)N[C@@H](Cc1ccccc1)C(N)=O (Ac-YTSLIEELIKKSEEMQKKNEEELKKLEEWAKKWNWF-NH2) | 9.2 | 74.6 | 0.9
CC[C@H](C)[C@H](NC(=O)[C@H](CC(C)C)NC(=O)[C@H](CCC(=O)O)NC(=O)[C@H](CCC(=O)O)NC(=O)[C@@H](NC(=O)[C@H](CC(C)C)NC(=O)[C@H](CO)NC(=O)[C@@H](NC(=O)[C@H](Cc1ccc(O)cc1)NC(C)=O)[C@@H](C)O)[C@@H](C)CC)C(=O)N[C@@H](CCCCN)C(=O)N[C@@H](CCCCN)C(=O)N[C@@H](CO)C(=O)N[C@@H](CCC(=O)O)C(=O)N[C@@H](CCC(=O)O)C(=O)N[C@@H](CC(N)=O)C(=O)N[C@@H](CCC(N)=O)C(=O)N[C@@H](CCCCN)C(=O)N[C@@H](CCCCN)C(=O)N[C@@H](CC(N)=O)C(=O)N[C@@H](CCC(=O)O)C(=O)N[C@@H](CCC(=O)O)C(=O)N[C@@H](CCC(=O)O)C(=O)N[C@@H](CC(C)C)C(=O)N[C@@H](CCCCN)C(=O)N[C@@H](CCCCN)C(=O)N[C@@H](CC(C)C)C(=O)N[C@@H](CCC(=O)O)C(=O)N[C@@H](CCC(=O)O)C(=O)N[C@@H](Cc1c[nH]c2ccccc12)C(=O)N[C@@H](C)C(=O)N[C@@H](CCCCN)C(=O)N[C@@H](CCCCN)C(=O)N[C@@H](Cc1c[nH]c2ccccc12)C(=O)N[C@@H](CC(N)=O)C(=O)N[C@@H](Cc1c[nH]c2ccccc12)C(=O)N[C@@H](Cc1ccccc1)C(N)=O (Ac-YTSLIEELIKKSEENQKKNEEELKKLEEWAKKWNWF-NH2) | 4.4 | 69 | 3.6
CC[C@H](C)[C@H](NC(=O)[C@H](CC(C)C)NC(=O)[C@H](CCC(=O)O)NC(=O)[C@H](CCC(=O)O)NC(=O)[C@@H](NC(=O)[C@H](CC(C)C)NC(=O)[C@H](CO)NC(=O)[C@@H](NC(=O)[C@H](Cc1ccc(O)cc1)NC(C)=O)[C@@H](C)O)[C@@H](C)CC)C(=O)N[C@@H](CCCCN)C(=O)N[C@@H](CCCCN)C(=O)N[C@@H](CO)C(=O)N[C@@H](CCC(=O)O)C(=O)N[C@@H](CCC(=O)O)C(=O)N1CCC[C@H]1C(=O)N[C@@H](CCC(N)=O)C(=O)N[C@@H](CCCCN)C(=O)N[C@@H](CCCCN)C(=O)N[C@@H](CC(N)=O)C(=O)N[C@@H](CCC(=O)O)C(=O)N[C@@H](CCC(=O)O)C(=O)N[C@@H](CCC(=O)O)C(=O)N[C@@H](CC(C)C)C(=O)N[C@@H](CCCCN)C(=O)N[C@@H](CCCCN)C(=O)N[C@@H](CC(C)C)C(=O)N[C@@H](CCC(=O)O)C(=O)N[C@@H](CCC(=O)O)C(=O)N[C@@H](Cc1c[nH]c2ccccc12)C(=O)N[C@@H](C)C(=O)N[C@@H](CCCCN)C(=O)N[C@@H](CCCCN)C(=O)N[C@@H](Cc1c[nH]c2ccccc12)C(=O)N[C@@H](CC(N)=O)C(=O)N[C@@H](Cc1c[nH]c2ccccc12)C(=O)N[C@@H](Cc1ccccc1)C(N)=O (Ac-YTSLIEELIKKSEEPQKKNEEELKKLEEWAKKWNWF-NH2) | 0.3 | 52 | > 1000
CC[C@H](C)[C@H](NC(=O)[C@H](CC(C)C)NC(=O)[C@H](CCC(=O)O)NC(=O)[C@H](CCC(=O)O)NC(=O)[C@@H](NC(=O)[C@H](CC(C)C)NC(=O)[C@H](CO)NC(=O)[C@@H](NC(=O)[C@H](Cc1ccc(O)cc1)NC(C)=O)[C@@H](C)O)[C@@H](C)CC)C(=O)N[C@@H](CCCCN)C(=O)N[C@@H](CCCCN)C(=O)N[C@@H](CO)C(=O)N[C@@H](CCC(=O)O)C(=O)N[C@@H](CCC(=O)O)C(=O)N[C@@H](CCCNC(=N)N)C(=O)N[C@@H](CCC(N)=O)C(=O)N[C@@H](CCCCN)C(=O)N[C@@H](CCCCN)C(=O)N[C@@H](CC(N)=O)C(=O)N[C@@H](CCC(=O)O)C(=O)N[C@@H](CCC(=O)O)C(=O)N[C@@H](CCC(=O)O)C(=O)N[C@@H](CC(C)C)C(=O)N[C@@H](CCCCN)C(=O)N[C@@H](CCCCN)C(=O)N[C@@H](CC(C)C)C(=O)N[C@@H](CCC(=O)O)C(=O)N[C@@H](CCC(=O)O)C(=O)N[C@@H](Cc1c[nH]c2ccccc12)C(=O)N[C@@H](C)C(=O)N[C@@H](CCCCN)C(=O)N[C@@H](CCCCN)C(=O)N[C@@H](Cc1c[nH]c2ccccc12)C(=O)N[C@@H](CC(N)=O)C(=O)N[C@@H](Cc1c[nH]c2ccccc12)C(=O)N[C@@H](Cc1ccccc1)C(N)=O (Ac-YTSLIEELIKKSEERQKKNEEELKKLEEWAKKWNWF-NH2) | 7.2 | 68.9 | 1.5
